Data on five compounds can be found in PMC5888952 (Toxicological Sciences, 2018).

Data set [1] has as its system cryopreserved primary human hepatocytes (PHH) in 2Dsw culture. Description: Repeated-dose cytotoxicity.
The subject of data set [2] is cryopreserved primary human hepatocytes (PHH) in 3D spheroid culture. Description: Repeated-dose cytotoxicity. The class given is cell-based.
Setting [3] is: after long-term exposure, chosen treatment regimen.

Molecules are shown by their SMILES.

For the compound `COc1ccccc1Oc1c(NS(=O)(=O)c2ccc(C(C)(C)C)cc2)nc(-c2ncccn2)nc1OCCO` [bosentan], the results for the “sensitivity of PHH in 2Dsw compared with 3D spheroids” value in data set [1] (after 7 days (3 treatments)) and in data set [1] (at 14 days (6 treatments)) were “higher” and “equal sensitivity”, respectively.

For the compound `O=C(O)Cc1ccccc1Nc1c(Cl)cccc1Cl` [diclofenac], in data set [1] (setting [3]), the “sensitivity of PHH in 2Dsw compared with 3D spheroids” value was “substantially lower sensitivities”.

For the compound `O=c1[nH]c(=O)n([C@@H]2O[C@H](CO)[C@@H](O)[C@@H]2F)cc1I` [fialuridine], in data set [1] (2Dsw culture, any of the 3 PHH donors, up to 14 days repeated exposure), the “EC50 (50% reduction in viability, ATP)” value is “could not be attained”. In addition, in data set [1] (setting [3]), the “sensitivity of PHH in 2Dsw compared with 3D spheroids” value is “substantially lower sensitivities”.

Turning to `CCc1ccc(CCOc2ccc(CC3SC(=O)NC3=O)cc2)nc1` (stereo not shown) [pioglitazone], the “toxicity (ATP viability)” value in data set [1] (2Dsw culture, up to 14 days) is recorded as “non-toxic”; in data set [2] (3D spheroid culture, up to 14 days), “non-toxic”.

`Cc1c(C)c2c(c(C)c1O)CCC(C)(COc1ccc(CC3SC(=O)NC3=O)cc1)O2` (stereo not shown) [troglitazone]: in data set [1] (2Dsw culture, 3 donors tested), the “donors in which toxicity was indicated” value is 1 of the 3 donors. Moreover, in data set [1] (setting [3]), the “sensitivity of PHH in 2Dsw compared with 3D spheroids” value was “substantially lower sensitivities”. The “donors in which toxicity was identified at relevant concentrations” value in data set [2] (3D spheroids, after 72 hours (single treatment), 3 donors tested) is listed as “all 3 donors”.
